Experimental data reported in US20100048533A1, “LESTAURTINIB CRYSTALLINE FORM 1, CRYSTALLINE LESTAURIMIB ANHYDRATE AND AMORPHOUS LESTAURIMIB” (ABBOTT LABORATORIES, priority 2005, published 2010).
In brackets after ≈: the same amount, converted by molar mass.

Experiments:
[1] = Solid-state stability of crystalline forms versus relative humidity; assay type: physicochemical; conditions: for RH above which the form converts to a higher hydrate: ambient temperature
[2] = Slurry of lestaurtinib forms in 200 proof ethanol for 48 hours, remaining form analyzed by PXRD; conditions: for Form After Mixing With Ethanol For 48 Hours: 200 proof ethanol, PXRD
Procedure: The forms of lestaurtinib remaining were analyzed by PXRD to determine if any crystal form conversion had occurred.

[3] = Thermogravimetric analysis (TGA) moisture / weight loss; assay type: physicochemical; conditions: for weight loss: TGA
Procedure: TGA data were obtained using a TA Instruments Model 3100 and 5200 Thermal Analysts with a Model 2950 Hi Res TGA module. TGA thermograms were acquired at a heating rate of 5° C. per minute, under nitrogen purge with a flow rate of about 40 mL per minute.

[4] = Dynamic moisture sorption gravimetry (DMSG) (hygroscopicity); assay type: physicochemical
Procedure: Because moisture-mediated crystallization was not observed during RH levels between 5% and 10%, it was concluded that the solid at 5% RH was crystalline; and because the solid contained less than 0.5% water, it was also determined that it was an anhydrate.
Dynamic moisture sorption gravimetry (DMSG) (hygroscopicity) data were obtained on a VTI Corporation model MB 300 G sorption microbalance using vacuum to control RH. The automated system controlled the RH and temperature to which each sample was exposed, while continuously recording sample weight changes. Sorption and desorption isotherms were performed at 25±0.1° C. with 5±1% RH step intervals from 0-95% RH. Samples of about 15-30 mg were dried under vacuum for up to 3 hours (approximate RH=0-1% RH) before each experiment. The weight loss observed during the drying period was used to estimate how tightly each sample held onto water. After the drying period, sorption isotherms started at 5% RH. A critical weight equilibrium of less than […] weight change over three 5 minutes periods was used to move to the next step. […] Meaning that any water present in the sample was surface water and not lattice water.

[5] = Solubility in 200 proof ethanol by HPLC (saturated solutions, two-day slurry); conditions: slurried two days
Procedure: Solubility of Lestaurtinib Crystalline Form 1 and anhydrous lestaurtinib at 26° C. and 2-8° C. was determined using HPLC. Saturated solutions of the solid-state phase in ethanol (200 poof) were obtained by slurrying a sample in ethanol for two days at 26° C. and at 2-8° C. After slurrying, each solution was filtered through 0.45 μm micron filter and the level of CEP-701 was determined by HPLC.

C[C@]12O[C@H](C[C@]1(O)CO)n1c3ccccc3c3c4c(c5c6ccccc6n2c5c31)CNC4=O.O [Crystalline lestaurtinib monohydrate, crystalline lestaurtinib monohydrate]
RH above which the form converts to a higher hydrate [1]: above 40 % RH
factor by which ability to absorb water is reduced when ground ([1]; ground with mortar and pestle vs unground): about 6

CC#N.CC12OC(CC1(O)CO)n1c3ccccc3c3c4c(c5c6ccccc6n2c5c31)C(=O)NC4.CC12OC(CC1(O)CO)n1c3ccccc3c3c4c(c5c6ccccc6n2c5c31)C(=O)NC4.O (stereo not shown) [hemi: hydrate/acetonitrileate, Crystalline Lestaurtinib Hemihydrate Hemiacetonitrileate]
Form After Mixing With Ethanol For 48 Hours ([2]; 2-8° C.): 1
Form After Mixing With Ethanol For 48 Hours ([2]; 26° C.): 1

C[C@]12O[C@H](C[C@]1(O)CO)n1c3ccccc3c3c4c(c5c6ccccc6n2c5c31)CNC4=O [hydrated, Crystalline Hydrated Lestaurtinib]
Form After Mixing With Ethanol For 48 Hours ([2]; 2-8° C.): 1
Form After Mixing With Ethanol For 48 Hours ([2]; 26° C.): 1

C[C@]12O[C@H](C[C@]1(O)CO)n1c3ccccc3c3c4c(c5c6ccccc6n2c5c31)CNC4=O [Amorphous, Amorphous Lestaurtinib]
weight loss ([3]; up to about 184° C.): 5.56%

CC12OC(CC1(O)CO)n1c3ccccc3c3c4c(c5c6ccccc6n2c5c31)C(=O)NC4 (stereo not shown) [Form I, Lestaurtinib Crystalline Form 1]
solid state conversion ([1]; regardless of temperature or relative humidity): not known to undergo solid state conversion
weight loss ([3]; up to about 100° C.): 0.04%
moisture ([3]; determined by TGA): less than 0.05%
hygroscopicity [4]: non-hygroscopic
nominal moisture uptake ([4]; DMSG, 25° C.): about 0.2 % (w/w)
moisture uptake ([4]; DMSG, 25° C., 0-95% RH): up to 0.4%
equilibrium moisture content (EMC) ([4]; DMSG, at moisture uptake up to about 0.4%): about 0.1 mole water per mole drug
equilibrium moisture content (EMC) ([4]; DMSG, at nominal moisture uptake of about 0.2%): about 0.05 mole water per mole drug
Form After Mixing With Ethanol For 48 Hours ([2]; 2-8° C.): 1
Form After Mixing With Ethanol For 48 Hours ([2]; 26° C.): 1
relative stability of crystalline form ([2]; ambient temperature and 2-8° C.): most stable crystalline form of lestaurtinib
Solubility ([5]; 2-8° C.): 2380 µg/mL (≈ 5.42 mM)
Solubility ([5]; 26° C.): 2600 µg/mL (≈ 5.92 mM)

C[C@]12O[C@H](C[C@]1(O)CO)n1c3ccccc3c3c4c(c5c6ccccc6n2c5c31)CNC4=O [Crystalline lestaurtinib anhydrate, Crystalline Lestaurtinib Anhydrate]
RH above which the form converts to a higher hydrate [1]: above 5 % RH
water content of solid-state phase ([4]; DMSG, 25° C., between 0% and 5% RH): less than 0.5%
